Assays:
[1] = target: T1, 3-oxo-5-alpha-steroid 4-dehydrogenase 1 (Homo sapiens, UniProt P18405); experiment: Binding affinity for human 5 alpha reductase 1 isozyme
T1 sequence (P18405 whole entry): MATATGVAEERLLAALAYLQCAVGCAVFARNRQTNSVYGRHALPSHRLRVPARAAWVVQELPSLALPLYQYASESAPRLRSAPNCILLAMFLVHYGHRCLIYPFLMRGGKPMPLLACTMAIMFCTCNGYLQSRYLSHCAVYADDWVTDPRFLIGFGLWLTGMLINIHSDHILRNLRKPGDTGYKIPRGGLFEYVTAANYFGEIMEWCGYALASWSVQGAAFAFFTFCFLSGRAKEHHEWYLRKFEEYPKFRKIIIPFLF

[2] = target: Alpha-1B adrenergic receptor (Mesocricetus auratus) (UniProt P18841); experiment: Binding affinity was tested on cloned hamster Alpha-1B adrenergic receptor
Sequence of Alpha-1B adrenergic receptor (Mesocricetus auratus) (P18841 whole entry, looked up): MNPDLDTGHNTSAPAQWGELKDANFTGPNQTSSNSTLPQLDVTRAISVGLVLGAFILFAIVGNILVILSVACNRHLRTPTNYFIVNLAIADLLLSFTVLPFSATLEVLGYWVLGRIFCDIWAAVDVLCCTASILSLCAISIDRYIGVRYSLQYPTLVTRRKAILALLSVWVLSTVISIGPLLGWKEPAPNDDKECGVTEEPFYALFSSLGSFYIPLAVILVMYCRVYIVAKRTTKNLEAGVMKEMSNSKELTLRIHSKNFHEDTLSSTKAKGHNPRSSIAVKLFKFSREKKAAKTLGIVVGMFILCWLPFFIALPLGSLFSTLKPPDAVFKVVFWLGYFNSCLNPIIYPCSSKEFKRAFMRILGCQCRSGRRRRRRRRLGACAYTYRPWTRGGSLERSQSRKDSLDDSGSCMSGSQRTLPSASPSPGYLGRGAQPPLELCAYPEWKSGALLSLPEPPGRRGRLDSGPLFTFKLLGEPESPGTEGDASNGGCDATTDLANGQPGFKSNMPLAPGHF

Row | Ki [1] [nM] | IC50 [2] [nM] | SMILES
1 | 0.2 | – | CC1C(=O)CC[C@@]2(C)C1=NCC1C2CC[C@@]2(C)C1CC[C@@H]2C(=O)Nc1cc(C(F)(F)F)ccc1C(F)(F)F (stereo partly drawn) [(1S,9aR,11aS)-6,9a,11a-Trimethyl-7-oxo-2,3,3a,3b,4,5,7,8,9,9a,9b,10,11,11a-tetradecahydro-1H-cyclopenta[i]phenanthridine-1-carboxylic acid (2,5-bis-trifluoromethyl-phenyl)-amide]
2 | 0.2 | – | C[C@]12CCC(=O)C(Cl)C1=NCC1C2CC[C@@]2(C)C1CC[C@@H]2C(=O)Nc1cc(C(F)(F)F)ccc1C(F)(F)F (stereo partly drawn) [(1S,9aR,11aS)-6-Chloro-9a,11a-dimethyl-7-oxo-2,3,3a,3b,4,5,7,8,9,9a,9b,10,11,11a-tetradecahydro-1H-cyclopenta[i]phenanthridine-1-carboxylic acid (2,5-bis-trifluoromethyl-phenyl)-amide]
3 | – | 206 | COc1ccc(CC2c3cc(OC)c(OC)cc3CCN2c2nc(N)c3cc(OC)c(OC)cc3n2)cc1OC (stereo not drawn) [2-[1-(3,4-Dimethoxy-benzyl)-6,7-dimethoxy-3,4-dihydro-1H-isoquinolin-2-yl]-6,7-dimethoxy-quinazolin-4-ylamine]

Source: BindingDB's records for doi:10.1021/jm960697s (Pfizer, 1997)
